pEC50, pIC50: −log10 of the molar value.
Target: human rhinovirus 16 polymerase (HRV16pol) (Human rhinovirus 16, UniProt Q82122)
Experiment: Picornavirus polymerase inhibition assay: incorporation of tritiated NMP into acid-insoluble RNA products
Type: biochemical
Details: not given
Procedure: The enzyme activity of human rhinovirus 16 polymerase (HRV16pol) was measured as an incorporation of tritiated NMP into acid-insoluble RNA products. HRV16pol assay reactions contained 30 Nm recombinant enzyme, 50 Nm heteropolymeric RNA, about 0.5 μCi tritiated NTP, 0.1 Mm of competing cold NTP, 40 Mm Tris-HCl (Ph 7.0), 3 Mm dithiothreitol, and 0.5 Mm MgCl2. Standard reactions were incubated for 2.5 h at 30° C., in the presence of increasing concentration of inhibitor. At the end of the reaction, RNA was precipitated with 10% TCA, and acid-insoluble RNA products were filtered on a size exclusion 96-well plate. After washing of the plate, scintillation liquid was added and radiolabeled RNA products were detected according to standard procedures with a Trilux Microbeta scintillation counter. The compound concentration at which the enzyme-catalyzed rate was reduced by 50% (IC50) was calculated by fitting the data to a non-linear regression (sigmoidal).
A value of ‘A’ in the table below indicates an IC50 of <5 μM, a value of 13′ indicates an IC50<20 μM, and a value of ‘C’ indicates an IC50 value of <100 μM.

Sequence of human rhinovirus 16 polymerase (HRV16pol) (Q82122 1694-2153 limits assumed): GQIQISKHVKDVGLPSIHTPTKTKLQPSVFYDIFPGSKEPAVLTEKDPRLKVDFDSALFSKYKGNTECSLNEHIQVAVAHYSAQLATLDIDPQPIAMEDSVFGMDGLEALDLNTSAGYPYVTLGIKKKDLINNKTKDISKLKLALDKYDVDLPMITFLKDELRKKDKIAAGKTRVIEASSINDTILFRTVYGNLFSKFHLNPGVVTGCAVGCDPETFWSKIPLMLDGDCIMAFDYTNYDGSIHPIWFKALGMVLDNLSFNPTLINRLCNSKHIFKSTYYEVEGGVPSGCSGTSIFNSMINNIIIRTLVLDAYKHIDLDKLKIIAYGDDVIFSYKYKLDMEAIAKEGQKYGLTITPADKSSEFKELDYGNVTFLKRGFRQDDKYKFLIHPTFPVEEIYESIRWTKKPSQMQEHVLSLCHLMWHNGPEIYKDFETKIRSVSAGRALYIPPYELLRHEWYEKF

Q: `Nc1ccn([C@@H]2O[C@](CF)(COP(=O)(O)OP(=O)(O)OP(=O)(O)O)[C@@H](O)[C@@H]2F)c(=O)n1` [Compound 21] was tested. Which pIC50 did it give?
A: > 5.30

Same assay, conditions: recombinant HRV16pol, 2.5 h at 30° C., mean of several independent experiments; read-out: IC50

Q: With `C[C@@H]1[C@H](n2ccc(N)nc2=O)O[C@](CF)(COP(=O)(O)OP(=O)(O)OP(=O)(O)O)[C@H]1O` [Compound 47] as the molecule, how does the pIC50 read?
A: > 5.30

Q: With `C#C[C@@H]1[C@H](n2ccc(N)nc2=O)O[C@](CF)(COP(=O)(O)OP(=O)(O)OP(=O)(O)O)[C@H]1O` [Compound 48] as the molecule, how does the pIC50 read?
A: > 5.30

Q: With `Nc1ccn([C@@H]2O[C@](CBr)(COP(=O)(O)OP(=O)(O)OP(=O)(O)O)[C@@H](O)[C@@H]2F)c(=O)n1` [Compound 20] as the molecule, how does the pIC50 read?
A: 4.00 to 4.70

Q: `O=c1ccn([C@@H]2O[C@](CCl)(COP(=O)(O)OP(=O)(O)OP(=O)(O)O)[C@@H](O)[C@@H]2F)c(=O)[nH]1` [Compound 19] was tested. Which pIC50 did it give?
A: > 5.30

Q: How did the pIC50 turn out when `Nc1ccn([C@@H]2O[C@](CF)(COP(=O)(O)OP(=O)(O)OP(=O)(O)O)[C@@H](O)[C@@H]2CF)c(=O)n1` [Compound 50] was run?
A: 4.70 to 5.30

Q: `Nc1ccn([C@@H]2O[C@@](COP(=O)(O)OP(=O)(O)OP(=O)(O)O)(C(F)F)[C@@H](O)[C@@H]2O)c(=O)n1` [Compound 52] was tested. Which pIC50 did it give?
A: > 5.30

Q: How did the pIC50 turn out when `CC[C@]1(COP(=O)(O)OP(=O)(O)OP(=O)(O)O)O[C@@H](n2ccc(N)nc2=O)[C@@H](F)[C@@H]1O` [Compound 24] was run?
A: > 5.30

Q: How did the pIC50 turn out when `C#C[C@]1(COP(=O)(O)OP(=O)(O)OP(=O)(O)O)O[C@@H](n2ccc(N)nc2=O)[C@@H](F)[C@@H]1O` [Compound 22] was run?
A: 4.70 to 5.30

Q: With `Nc1ccn([C@@H]2O[C@](CF)(COP(=O)(O)OP(=O)(O)OP(=O)(O)O)[C@@H](O)[C@@H]2Cl)c(=O)n1` [Compound 16] as the molecule, how does the pIC50 read?
A: 4.00 to 4.70

Q: How did the pIC50 turn out when `C=C[C@]1(COP(=O)(O)OP(=O)(O)OP(=O)(O)O)O[C@@H](n2ccc(N)nc2=O)[C@@H](F)[C@@H]1O` [Compound 23] was run?
A: > 5.30

Q: How did the pIC50 turn out when `Nc1ccn([C@@H]2O[C@](CF)(COP(=O)(O)OP(=O)(O)OP(=O)(O)O)[C@@H](O)[C@@H]2O)c(=O)n1` [Compound 53] was run?
A: > 5.30

Q: `[N-]=[N+]=NC[C@]1(COP(=O)(O)OP(=O)(O)OP(=O)(O)O)O[C@@H](n2ccc(N)nc2=O)[C@@H](F)[C@@H]1O` [Compound 18] was tested. Which pIC50 did it give?
A: 4.70 to 5.30

Q: `Nc1ccn([C@H]2C[C@H](O)[C@](COP(=O)(O)OP(=O)(O)OP(=O)(O)O)(C(F)F)O2)c(=O)n1` [Compound 54] was tested. Which pIC50 did it give?
A: > 5.30

Test system: Human rhinovirus 1B
Experiment: Picornavirus assay: human rhinovirus 1B cytopathic effect in HeLa-OHIO cells, CellTiter-Glo readout
Type: cell-based
Details: Rhinovirus A, 96 h, compound and virus added together, 4 d at 33° C.
Procedure: (§1) HeLa-OHIO cells (Sigma-Aldrich, St. Louis, Mo.) were plated in 96 well plates at a density of 1.5×10^5 cells per well in assay media (MEM without phenol red or L-glutamine, supplemented with 1% FBS, 1% penicillin/streptomycin, 2 mM GlutaGro, and 1×MEM nonessential amino acids, all from Cellgro, Manassas, Va.). Assay setup took place after allowing cells to adhere for 24 h. Compounds dissolved in DMSO were serially diluted in assay media to 2× final concentration. Media was aspirated from the cells, and 1000 media with compound was added in triplicate. Human rhinovirus 1B (ATCC, Manassas, Va.) was diluted in assay media, and 100 μL was added to cells and compound. The virus inoculum was selected to cause 80-90% cytopathic effect in 4 d. Infected cells were incubated for 4 d at 33° C., 5% CO2. To develop the assay, 100 μL media was replaced with 100 μL CellTiter-Glo® reagent (Promega, Madison, Wis.), and incubated for 10 mins at RT. Luminescence was measured on a Victor X3 multi-label plate reader. Compounds of Formula (I) are active in this assay.

Q: `CC[C@]1(CO)O[C@@H](n2ccc(N)nc2=O)[C@@H](F)[C@@H]1O` [Compound 10] was tested. Which pEC50 did it give?
A: 5.00 to 6.00

Q: `[N-]=[N+]=NC[C@]1(CO)O[C@@H](n2ccc(N)nc2=O)C[C@@H]1O` [Compound 37] was tested. Which pEC50 did it give?
A: > 6.00

Q: How did the pEC50 turn out when `Nc1ccn([C@@H]2O[C@@](CO)(CF)[C@@H](O)[C@@H]2F)c(=O)n1` [Compound 7] was run?
A: > 6.00

Q: With `Nc1ccn([C@@H]2O[C@@](CO)(CF)[C@@H](O)[C@@H]2Cl)c(=O)n1` [Compound 2] as the molecule, how does the pEC50 read?
A: 5.00 to 6.00

Q: How did the pEC50 turn out when `Nc1ccn([C@@H]2O[C@@](CO)(CCl)[C@@H](O)[C@@H]2F)c(=O)n1` [Compound 3] was run?
A: > 6.00

Q: How did the pEC50 turn out when `C=C[C@]1(CO)O[C@@H](n2ccc(N)nc2=O)[C@@H](F)[C@@H]1O` [Compound 9] was run?
A: > 6.00

Q: With `[N-]=[N+]=NC[C@]1(CO)O[C@@H](n2ccc(N)nc2=O)[C@@H](F)[C@@H]1O` [Compound 4] as the molecule, how does the pEC50 read?
A: > 6.00

Test system: Human rhinovirus 1B
Experiment: Picornavirus assay with 24 h compound pre-incubation before infection: human rhinovirus 1B in HeLa-OHIO cells, CellTiter-Glo readout
Type: cell-based
Details: Rhinovirus A, HeLa-OHIO cells pre-incubated with compound for 24 h before infection, 4 d at 33° C.
Procedure: as §1, with “100 μl” for “1000”, “triplicate. Cells were pre-incubated with the diluted compounds for 24 h before infection.” for “triplicate.”

Q: With `Nc1ccn([C@@H]2O[C@@](CO)(C(F)F)[C@@H](O)[C@@H]2O)c(=O)n1` [Compound 44] as the molecule, how does the pEC50 read?
A: 4.00 to 5.00

Q: How did the pEC50 turn out when `Nc1ccn([C@@H]2O[C@@](CO)(CF)[C@@H](O)[C@@H]2O)c(=O)n1` [Compound 45] was run?
A: 5.00 to 6.00

Q: How did the pEC50 turn out when `C[C@@H]1[C@H](n2ccc(N)nc2=O)O[C@@](CO)(CF)[C@H]1O` [Compound 41] was run?
A: 5.00 to 6.00

Reference: patent US9890188B2, “Substituted nucleosides, nucleotides and analogs thereof” (ALIOS BIOPHARMA, INC., priority 2014, dated 2018)
